Results published in patent US20090239926A1, “METHODS FOR THE TREATMENT OF PSORIASIS OR PSORIATIC ARTHRITIS USING CYCLOPROPYL-N-CARBOXAMIDE” (priority 2008, published 2009).
pIC50: −log10 of the molar value. Several values for one entry are separate records, joined by “and”; a condition that tells them apart may be missing. Identical values can stand only once.

Legend:
[1] = target: T1, PDE3 from human platelets (Homo sapiens, UniProt Q14432); assay: Specificity: PDE3; format: biochemical
T1 construct: PDE3 and PDE5 from human platelets; from tissue; host or cells: human platelets
Experimental: (§1) The specificity of Compound A for PDE4 was assessed by testing at a single concentration (10 μM) against bovine PDE1, human PDE2, PDE3 and PDE5 from human platelets, and PDE6 from bovine retinal rod outer segments.

human PDE2 = human PDE2 (Homo sapiens, UniProt O00408); assay: Specificity: PDE2; format: biochemical
Experimental: as §1

Lymph node cells (LNC) = assay: Lymph node cells of collagen-immunized mice stimulated in vitro with type II collagen or anti-CD3 mAb; format: cell-based; conditions: FIG. 6
From the text: Ex Vivo Procedure: Mice were bled and lymph nodes were excised. Lymph node cells (LNC) were stimulated in vitro with antigen (type II collagen) or mitogen (anti-CD3 mAb) in the presence of Compound A.

[2] = target: T2, PDE6 from bovine retinal rod outer segments (Bos taurus, UniProt P11541+P23439); assay: Specificity: PDE6; format: biochemical
T2 construct: PDE6 from bovine retinal rod outer segments; from tissue; host or cells: bovine retinal rod outer segments
Experimental: as §1

[3] = system: fMLF-induced neutrophil LTB4 production; assay: fMLF-induced neutrophil LTB4 production; format: cell-based; conditions: Homo sapiens, 0.5 h, 1 μM fMLP, 30 minutes
Experimental: Formyl-Met-Leu-Phe (fMLP, Sigma) is a bacterially derived peptide that activates neutrophils to rapidly degranulate, migrate, and adhere to endothelial cells. Among the contents of the neutrophil granule is leukotriene B4 (LTB4), a product of arachidonic acid metabolism and itself a neutrophil stimulant. Compound A was tested for the ability to block fMLF-induced neutrophil LTB4 production.
Human neutrophils were isolated from human leukocyte units by dextran sedimentation as described in Coligan, J. E., et al., Current Protocols in Immunology, ed. R. Coico. Vol. 2. 2002: 2-3. The neutrophils were resuspended in phosphate-buffered saline without calcium or magnesium (BioWhittaker) containing 10 mM HEPES pH 7.2 and plated in 96-well tissue culture plates at a concentration of 1.7×10^6 cells/well. Cells were treated with 50 μM thimerosal (Sigma)/1 mM CaCl2/1 mM MgCl2 for 15 minutes at 37° C. 5% CO2, then treated with Compound A in a final DMSO concentration of 0.01% in duplicate for 10 minutes. Neutrophils were stimulated with 1 μM fMLP for 30 minutes, then lysed by the addition of methanol (20% final concentration) and frozen in a dry ice/isopropanol bath for 10 minutes. Lysates were stored at −70° C. until the LTB4 content was measured by competitive LTB4 ELISA (R&D systems).

spontaneous behavior = assay: Spontaneous behavior (LABORAS) in non-arthritic mice; format: in vivo; conditions: 25 mg/kg/day
Experimental: Behavioral studies: The effect of Compound A (25 mg/kg/day) on spontaneous behavior was assessed using the LABORAS (Laboratory Animal Behavior Observation Registration and Analysis System), which is an automated system that detects vibrations evoked by movement of a single rodent in a cage. Pattern recognition software then recognizes and quantifies behaviors, including grooming, activity, climbing, immobility, and feeding.

[4] = system: PDE4 enzyme purified from U937 human monocytic cells; assay: PDE4 inhibition; format: biochemical
Experimental: PDE4 enzyme was purified from U937 human monocytic cells by gel filtration chromatography (Muller et al. 1998, Bioorg. & Med. Chem. Lett. 1998. 8 (19):2669-74). Phosphodiesterase reactions were carried out in 50 MM Tris HCl pH 7.5, 5 mM MgCl2, 1 μM cAMP, 10 nM [^3H]-cAMP for 30 min at 30, terminated by boiling, treated with 1 mg/ml snake venom, and separated using AG-lXS ion exchange resin (BioRad).
as §1

bovine PDE1 = assay: Specificity: PDE1; format: biochemical; conditions: at 10 μM
Experimental: as §1

[5] = system: LPS-stimulated human PBMC TNF-α production; assay: LPS-induced TNF-α production in human PBMC; format: cell-based; conditions: LPS 100 ng/ml, 18-20 hours
Experimental: LPS-induced TNF-α production in Human PBMC: Human peripheral blood mononuclear cells (PBMC) (2×10^5 cells) were plated in 96-well flat-bottom Costar tissue culture plates (Corning, N.Y., USA) in triplicate. Compound A was dissolved in DMSO (Sigma) and further dilutions were done in culture medium immediately before use. The final DMSO concentration in all samples was 0.25%. Various concentration of Compound A was added to cells one hour before stimulation. Cells were stimulated with LPS (Sigma, St. Louis, Mo., USA) at 100 ng/ml, in the absence or presence of Compound A. Cells were incubated for 18-20 hours at 37 in 5% CO2 and supernatants were then collected, diluted with culture medium and assayed for TNF-α levels by ELISA (Endogen, Boston, Mass., USA) (Muller, G. W., et al., J Med Chem, 1996. 39(17): 3238-40).

[6] = system: TNF-α production by synoviocytes from rheumatoid arthritis patients; assay: TNF-α production by human rheumatoid synovial membrane cells; format: cell-based; conditions: 48 hours culture, ELISA
Experimental: Human Rheumatoid Synovial Membrane Cell: Rheumatoid synovial membrane tissue samples were processed to dissociate the cells from the matrix by digesting the tissue with Collagenase A and DNAse. The cells were then plated into a 96-well flat-bottom plate at 1×10^6/well in RPMI (10% FCS) and treated with Compound A and controls (in triplicate). The cells were cultured for 48 hours at 37° C. in 5% CO2 before supernatants were harvested and analyzed by ELISA.
Compound A was solubilized under sterile conditions in filter-sterilized dimethyl sulphoxide (DMSO). The vehicle control contained the same concentration of DMSO used as the diluent in the highest concentration of drug used. A combined treatment of anti-TNF-α and IL-1RA, both at 10 μg/ml, was used as a positive control.

T2 sequence (P11541 2-856 limits assumed): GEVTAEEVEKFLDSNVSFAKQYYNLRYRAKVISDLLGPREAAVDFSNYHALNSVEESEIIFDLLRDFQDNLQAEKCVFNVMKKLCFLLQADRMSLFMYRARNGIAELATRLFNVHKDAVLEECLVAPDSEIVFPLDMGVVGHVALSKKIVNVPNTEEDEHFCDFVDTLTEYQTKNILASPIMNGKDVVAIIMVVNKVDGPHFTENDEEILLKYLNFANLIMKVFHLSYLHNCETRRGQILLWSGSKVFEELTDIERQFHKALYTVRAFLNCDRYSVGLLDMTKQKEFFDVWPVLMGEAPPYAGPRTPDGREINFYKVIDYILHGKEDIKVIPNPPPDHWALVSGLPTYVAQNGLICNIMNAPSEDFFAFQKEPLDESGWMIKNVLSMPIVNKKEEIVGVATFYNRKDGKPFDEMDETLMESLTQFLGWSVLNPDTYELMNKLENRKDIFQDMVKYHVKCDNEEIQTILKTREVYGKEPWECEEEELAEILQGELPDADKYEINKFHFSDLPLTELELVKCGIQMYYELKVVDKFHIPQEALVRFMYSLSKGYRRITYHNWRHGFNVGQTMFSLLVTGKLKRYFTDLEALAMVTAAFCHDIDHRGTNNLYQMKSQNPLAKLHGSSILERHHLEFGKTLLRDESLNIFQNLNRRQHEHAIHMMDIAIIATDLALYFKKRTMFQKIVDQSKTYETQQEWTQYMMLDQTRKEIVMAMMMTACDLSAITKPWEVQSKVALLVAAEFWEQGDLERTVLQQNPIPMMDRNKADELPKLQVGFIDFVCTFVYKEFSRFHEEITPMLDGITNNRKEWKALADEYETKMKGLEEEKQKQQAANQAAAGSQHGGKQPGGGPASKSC
T2 sequence (P23439 2-850 limits assumed): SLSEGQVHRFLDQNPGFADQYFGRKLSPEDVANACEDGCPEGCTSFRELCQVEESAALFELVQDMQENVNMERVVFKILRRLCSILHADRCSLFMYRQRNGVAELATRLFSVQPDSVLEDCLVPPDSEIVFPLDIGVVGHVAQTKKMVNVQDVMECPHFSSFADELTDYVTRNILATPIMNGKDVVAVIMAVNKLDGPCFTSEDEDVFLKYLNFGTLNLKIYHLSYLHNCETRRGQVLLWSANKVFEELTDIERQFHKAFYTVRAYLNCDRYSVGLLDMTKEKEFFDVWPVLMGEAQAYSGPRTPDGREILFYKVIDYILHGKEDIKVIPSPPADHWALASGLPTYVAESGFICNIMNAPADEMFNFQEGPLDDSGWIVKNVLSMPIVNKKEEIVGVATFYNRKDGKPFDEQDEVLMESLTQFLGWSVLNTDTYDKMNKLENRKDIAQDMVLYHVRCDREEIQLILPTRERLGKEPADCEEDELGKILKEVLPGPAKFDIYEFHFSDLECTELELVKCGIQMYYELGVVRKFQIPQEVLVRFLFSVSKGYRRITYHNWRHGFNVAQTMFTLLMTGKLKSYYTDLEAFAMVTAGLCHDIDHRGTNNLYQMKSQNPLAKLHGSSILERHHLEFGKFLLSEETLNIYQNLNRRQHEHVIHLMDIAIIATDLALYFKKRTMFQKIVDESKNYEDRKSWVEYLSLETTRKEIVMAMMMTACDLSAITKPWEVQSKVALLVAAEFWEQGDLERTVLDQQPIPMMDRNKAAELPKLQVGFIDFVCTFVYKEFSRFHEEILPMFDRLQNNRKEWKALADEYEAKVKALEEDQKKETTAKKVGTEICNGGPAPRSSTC
T1 sequence (Q14432 whole entry): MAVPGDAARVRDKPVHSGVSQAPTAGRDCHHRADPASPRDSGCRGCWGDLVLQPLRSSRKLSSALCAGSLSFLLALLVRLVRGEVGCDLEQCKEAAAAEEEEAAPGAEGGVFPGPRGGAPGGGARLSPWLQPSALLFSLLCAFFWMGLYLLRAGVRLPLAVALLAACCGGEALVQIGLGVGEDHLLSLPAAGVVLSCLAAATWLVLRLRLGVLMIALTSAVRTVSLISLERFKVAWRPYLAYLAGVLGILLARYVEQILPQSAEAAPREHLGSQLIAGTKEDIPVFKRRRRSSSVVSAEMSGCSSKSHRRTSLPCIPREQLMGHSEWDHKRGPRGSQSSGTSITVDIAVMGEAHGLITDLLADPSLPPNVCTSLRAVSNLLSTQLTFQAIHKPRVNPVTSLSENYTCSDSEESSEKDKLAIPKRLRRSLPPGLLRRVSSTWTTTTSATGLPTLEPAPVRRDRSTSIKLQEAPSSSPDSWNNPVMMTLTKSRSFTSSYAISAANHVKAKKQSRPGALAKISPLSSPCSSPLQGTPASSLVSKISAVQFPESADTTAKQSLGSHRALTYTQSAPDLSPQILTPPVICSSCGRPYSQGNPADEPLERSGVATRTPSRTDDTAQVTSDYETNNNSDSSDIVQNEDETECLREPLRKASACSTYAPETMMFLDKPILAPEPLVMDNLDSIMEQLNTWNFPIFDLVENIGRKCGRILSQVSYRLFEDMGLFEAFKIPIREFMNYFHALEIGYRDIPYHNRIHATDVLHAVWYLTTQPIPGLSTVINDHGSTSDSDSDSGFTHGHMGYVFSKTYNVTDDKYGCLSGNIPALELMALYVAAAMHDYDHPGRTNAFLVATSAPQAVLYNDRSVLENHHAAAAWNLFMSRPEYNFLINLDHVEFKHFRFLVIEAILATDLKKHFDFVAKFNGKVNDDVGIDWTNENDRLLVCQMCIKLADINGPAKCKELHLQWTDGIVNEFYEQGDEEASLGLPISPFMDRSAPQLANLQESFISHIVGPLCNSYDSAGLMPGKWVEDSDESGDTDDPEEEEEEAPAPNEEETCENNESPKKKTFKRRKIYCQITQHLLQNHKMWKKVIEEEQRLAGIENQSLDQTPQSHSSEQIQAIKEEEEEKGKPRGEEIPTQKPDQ
Sequence of human PDE2 (O00408 whole entry): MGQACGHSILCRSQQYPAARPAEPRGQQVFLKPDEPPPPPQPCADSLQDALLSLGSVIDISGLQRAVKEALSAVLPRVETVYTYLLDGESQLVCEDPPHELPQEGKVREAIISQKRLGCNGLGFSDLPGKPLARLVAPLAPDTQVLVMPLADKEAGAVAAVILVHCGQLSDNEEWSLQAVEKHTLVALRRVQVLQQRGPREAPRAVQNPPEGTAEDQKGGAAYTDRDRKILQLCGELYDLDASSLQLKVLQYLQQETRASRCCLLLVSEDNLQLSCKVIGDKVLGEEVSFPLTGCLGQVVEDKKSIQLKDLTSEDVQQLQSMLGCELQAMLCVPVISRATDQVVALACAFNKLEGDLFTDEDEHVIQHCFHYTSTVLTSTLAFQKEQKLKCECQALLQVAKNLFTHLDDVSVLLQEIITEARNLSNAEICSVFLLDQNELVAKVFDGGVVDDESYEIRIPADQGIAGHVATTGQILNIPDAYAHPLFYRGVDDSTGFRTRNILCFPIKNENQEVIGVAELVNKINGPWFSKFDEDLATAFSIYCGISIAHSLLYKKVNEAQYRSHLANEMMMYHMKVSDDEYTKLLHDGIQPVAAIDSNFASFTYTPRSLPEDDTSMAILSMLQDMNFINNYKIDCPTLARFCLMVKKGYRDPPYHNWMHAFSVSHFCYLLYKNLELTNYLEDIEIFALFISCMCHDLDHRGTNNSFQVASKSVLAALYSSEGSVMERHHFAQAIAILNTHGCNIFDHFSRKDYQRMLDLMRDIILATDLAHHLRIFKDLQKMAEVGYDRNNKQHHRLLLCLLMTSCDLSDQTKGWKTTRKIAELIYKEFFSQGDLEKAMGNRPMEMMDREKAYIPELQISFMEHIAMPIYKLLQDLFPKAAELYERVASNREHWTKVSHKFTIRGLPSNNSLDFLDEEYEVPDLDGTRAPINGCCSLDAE

inhibition at 10 µM [1]: 9%
inhibition at 10 µM (human PDE2): -14%
inhibition at 10 µM [2]: 17%
IC50 [3]: 10 nM and 0.0047 µg/mL
effect on climbing (spontaneous behavior): little or no effect
effect on grooming (spontaneous behavior): little or no effect
effect on locomotion (spontaneous behavior): only a modest reduction
effect on time spent immobile (spontaneous behavior): little or no effect
pIC50 ([4]; 1 μM cAMP): 7.00
PDE4 IC50 (from U937 cells) ([4]; 1 μM cAMP): 0.05 µg/mL
pIC50 [6]: 7.00
SMILES: CCOc1cc([C@@H](CS(C)(=O)=O)N2Cc3cccc(NC(=O)C4CC4)c3C2=O)ccc1OC [Compound A, cyclopropyl-N-{2-[(1S)-1-(3-ethoxy-4-methoxyphenyl)-2-(methylsulfonyl)ethyl]-3-oxoisoindoline-4-yl}carboxamide]
production of the Th2 cytokine IL-5 (Lymph node cells (LNC)): unaffected
IFN-γ production (Lymph node cells (LNC); dose-dependent): inhibited
T cell proliferation (Lymph node cells (LNC); dose-dependent): inhibited
TNF-α production (Lymph node cells (LNC); dose-dependent): inhibited
PDE4 % inhibition ([4]; at 10 μM): 95%
PDE1 % inhibition (bovine PDE1): 30%
IC50 [5]: 51 nM and 0.024 µg/mL
